Converted amounts (≈) assume the structure as drawn.
Columns and labels:
[1] = system: HL 60 human promyelocytic leukemia cells; assay: Cytotoxicity test, MTT colorimetric method, HL 60; assay type: cell-based
Description: (§1) The cytotoxicity test of the obtained major ergostane triterpenoid compounds (zhankuic acid A, zhankuic acid C, antcin C and antcin K) and their stereoisomeric pure compounds (compounds E1 to E6 and E9 to E10) were performed on three leukemia cell lines using MTT (3-(4,5-dimethylthiazol-2-yl)-2,5-diphenyltetrazolium bromide) colorimetric method, and the results were referred to Table 8.

[2] = system: Molt 4 human acute lymphoblastic leukemia cells; assay: Cytotoxicity test, MTT colorimetric method, Molt 4; assay type: cell-based
Description: as §1

[3] = system: CCRF-CEM human acute lymphoblastic leukemia cells; assay: Cytotoxicity test, MTT colorimetric method, CCRF-CEM; assay type: cell-based
Description: as §1

[4] = Solubility in solvents for optical rotation measurement; assay type: physicochemical; details: methanol or ethanol
Description: After determining the absolute configuration, we tried to measure the optical rotation aiming to complete the spectral profile for the isolated compounds. In a previous report, the mixture form of zhankuic acid A was dissolved in methanol to measure its optical rotation. […] The solubility of compounds E9 and E10 improved through using acetone-methanol mixture. Considering compounds solubility and the convenience of collecting physical and spectral data using single solvent, pyridine was used in optical rotation experiment. The optical rotation of compound E9 was [α]D^25+32.1 (c 0.70, pyridine), and that of compound E10 was [α]D^25+9.0 (c 0.84, pyridine).

Compound | IC50 (μg/ml) HL 60 [1] | IC50 (μg/ml) Molt 4 [2] | IC50 (μg/ml) CCRF-CEM [3] | solubility in single solvent [4]
C=C(CC[C@@H](C)[C@H]1CC[C@H]2C3=C(C(=O)[C@H](O)[C@]12C)[C@@]1(C)CC[C@@H](O)[C@@H](C)[C@@H]1CC3=O)C(C)C(=O)O (some centres unmarked) [Zhankuic acid C, zhankuic acid C] | >80 µg/mL | >80 µg/mL | >80 µg/mL | –
C=C(CC[C@@H](C)[C@H]1CC[C@H]2C3=C(C(=O)[C@H](O)[C@]12C)[C@@]1(C)CC[C@@H](O)[C@@H](C)C1CC3=O)[C@@H](C)C(=O)O (stereo partly drawn) [Compound E5, 3α,12α-dihydroxy-4α-methylergosta-8,24(28)-dien-7,11-dion-25R-26-oic acid] | >80 µg/mL | >80 µg/mL | >80 µg/mL | –
C=C(CC[C@@H](C)[C@H]1CC[C@H]2C3=C(C(=O)C[C@]12C)[C@@]1(C)CCC(=O)[C@@H](C)C1CC3=O)[C@H](C)C(=O)O (stereo partly drawn) [Compound E9, 4α-methylergosta-8,24(28)-dien-3,7,11-trion-25S-26-oic acid] | 54.67 ± 8.14 µg/mL (≈ 117 µM) | 42.16 ± 2.33 µg/mL (≈ 90 µM) | 21.99 ± 7.91 µg/mL (≈ 46.9 µM) | not sufficient
3α,4β,7β-trihydroxy-4α-methylergosta-8,24(28)-dien-11-on-25S-26-oic acid [Compound E1] | >80 µg/mL | >80 µg/mL | >80 µg/mL | –
C=C(CC[C@@H](C)[C@H]1CC[C@H]2C3=C(C(=O)C[C@]12C)[C@@]1(C)CC[C@@H](O)[C@](C)(O)[C@@H]1C[C@@H]3O)[C@@H](C)C(=O)O [Compound E2, 3α,4β,7β-trihydroxy-4α-methylergosta-8,24(28)-dien-11-on-25R-26-oic acid] | >80 µg/mL | >80 µg/mL | >80 µg/mL | –
C=C(CC[C@@H](C)[C@H]1CC[C@H]2C3=C(C(=O)C[C@]12C)[C@@]1(C)CCC(=O)[C@@H](C)C1CC3=O)[C@@H](C)C(=O)O (stereo partly drawn) [Compound E10, 4α-methylergosta-8,24(28)-dien-3,7,11-trion-25R-26-oic acid] | 23.32 ± 1.60 µg/mL (≈ 49.8 µM) | 16.44 ± 3.77 µg/mL (≈ 35.1 µM) | 22.90 ± 7.60 µg/mL (≈ 48.9 µM) | not sufficient
C=C(CC[C@@H](C)[C@H]1CC[C@H]2C3=C(C(=O)C[C@]12C)[C@@]1(C)CCC(=O)[C@@H](C)C1C[C@@H]3O)[C@@H](C)C(=O)O (stereo partly drawn) [Compound E4, 7β-hydroxy-4α-methylergosta-8,24(28)-dien-3,11-dion-25R-26-oic acid] | >80 µg/mL | 54.28 ± 1.96 µg/mL (≈ 115 µM) | 27.94 ± 6.44 µg/mL (≈ 59.4 µM) | –
antcin C | 47.02 ± 4.45 µg/mL | 55.02 ± 3.34 µg/mL | 28.82 ± 6.79 µg/mL | –
C=C(CC[C@@H](C)[C@H]1CC[C@H]2C3=C(C(=O)C[C@]12C)[C@@]1(C)CCC(=O)[C@@H](C)C1C[C@@H]3O)[C@H](C)C(=O)O (stereo partly drawn) [Compound E3, 7β-hydroxy-4α-methylergosta-8,24(28)-dien-3,11-dion-25S-26-oic acid] | >80 µg/mL | 77.04 ± 2.78 µg/mL (≈ 164 µM) | 30.681 ± 5.30 µg/mL (≈ 65.2 µM) | –
C=C(CC[C@@H](C)[C@H]1CC[C@H]2C3=C(C(=O)C[C@]12C)[C@@]1(C)CCC(=O)[C@@H](C)[C@@H]1CC3=O)C(C)C(=O)O (some centres unmarked) [Zhankuic acid A, zhankuic acid A] | 69.98 ± 18.98 µg/mL (≈ 149 µM) | 53.23 ± 3.88 µg/mL (≈ 114 µM) | 47.04 ± 6.191 µg/mL (≈ 100 µM) | –
antcin K | >80 µg/mL | >80 µg/mL | >80 µg/mL | –
C=C(CC[C@@H](C)[C@H]1CC[C@H]2C3=C(C(=O)[C@H](O)[C@]12C)[C@@]1(C)CC[C@@H](O)[C@@H](C)C1CC3=O)[C@H](C)C(=O)O (stereo partly drawn) [Compound E6, 3α,12α-dihydroxy-4α-methylergosta-8,24(28)-dien-7,11-dion-25S-26-oic acid] | >80 µg/mL | >80 µg/mL | >80 µg/mL | –
